One may read the inhibition as the relative decrease from the control value, in per cent. Usually fraction unbound stands for free concentration divided by total concentration.

Where only a bound is given, the exact number is not on record here.

Results on one molecule are retold here after ChEMBL document CHEMBL6109134, “Discovery of AMG 193, an MTA-Cooperative PRMT5 Inhibitor for the Treatment of MTAP-Deleted Cancers” (J Med Chem, 2025).

The target in data set [1] is Protein arginine N-methyltransferase 5 (Homo sapiens) (UniProt O14744). In words: In vivo inhibition of PRMT5 in athymic nude mouse xenografted with MTAP-deleted human HCT-116 cells assessed as decrease in SDMA level in tumor at 3 mg/kg, po administered once daily for 4 days and measured 4 hrs post last dose by ELISA relative to control. Conditions: time 4.0 day. Type of data set: functional, organism-based. (In general: A xenograft is tissue or cells of one species grown in another, often human tumour cells in immunodeficient mice.)

Data set [2] can be described thus: Protein binding in mouse plasma assessed as unbound fraction by ultracentrifugation. Conditions: plasma.
Data set [3] concerns the target T1, Nuclear receptor subfamily 1 group I member 2 (Homo sapiens, UniProt O75469).
T1 sequence (O75469 whole entry): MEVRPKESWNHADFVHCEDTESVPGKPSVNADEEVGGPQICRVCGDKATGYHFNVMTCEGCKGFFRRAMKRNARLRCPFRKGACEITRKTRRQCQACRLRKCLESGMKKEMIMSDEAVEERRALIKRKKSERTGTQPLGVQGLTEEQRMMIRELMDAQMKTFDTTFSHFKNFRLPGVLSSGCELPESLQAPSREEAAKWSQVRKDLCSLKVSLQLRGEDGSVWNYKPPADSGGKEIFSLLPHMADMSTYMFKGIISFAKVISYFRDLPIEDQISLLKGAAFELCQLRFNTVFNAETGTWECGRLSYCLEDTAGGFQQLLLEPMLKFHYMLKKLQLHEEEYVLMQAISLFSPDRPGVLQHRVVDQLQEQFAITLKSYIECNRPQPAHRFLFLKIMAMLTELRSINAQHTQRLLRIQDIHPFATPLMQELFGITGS
Description: Activation of human PXR in human HepG2 cells co-transfected with CYP3A4-luciferase at 10 uM incubated for 1 day relative to control. The conditions noted are these: hepg2, 24 h.

Data set [4] is described as follows: Unbound clearance in Sprague-Dawley rat at 0.5 mg/kg, iv. The class given is ADME, organism-based. Conditions: in vivo.
A short description of data set [5]: Metabolic stability in mouse liver microsomes assessed as intrinsic clearance at 0.5 uM incubated for 40 mins in presence of NADPH. The class given is ADME, Microsome. Conditions: read-out: CLH.
Data set [6] in a line: Unbound clearance in Beagle dog at 0.5 mg/kg, iv. The class given is ADME, organism-based, Canis lupus familiaris. The conditions noted are these: in vivo.
Data set [7] can be described thus: Toxicity in male rat up to 75 mg/kg, po administered as single dose for 14 days. Type of data set: organism-based. The conditions noted are these: in vivo, 336 h, time 14 day.
For data set [8], the target named is Protein arginine N-methyltransferase 5 (Homo sapiens) (UniProt O14744). In words: In vivo inhibition of PRMT5 in athymic nude mouse xenografted with MTAP-deleted human HCT-116 cells assessed as decrease in SDMA level in tumor at 30 mg/kg, po administered once daily for 4 days and measured 4 hrs post last dose by ELISA relative to control. The class given is functional, organism-based. Conditions: time 4.0 day.

For data set [9] the target is unchanged. In words: In vivo inhibition of PRMT5 in athymic nude mouse xenografted with human HCT-116 cells harboring wildtype MTAP assessed as decrease in SDMA level in tumor at 10 mg/kg, po administered once daily for 4 days and measured 4 hrs post last dose by ELISA relative to control. Type of data set: functional, organism-based. Conditions: time 4.0 day.
In data set [10] the target is DNA (cytosine-5)-methyltransferase 1 (Homo sapiens) (UniProt P26358). Description: Activation of human DNMT1 at 10 uM relative to control.
Chain of DNA (cytosine-5)-methyltransferase 1 (Homo sapiens) (P26358 whole entry): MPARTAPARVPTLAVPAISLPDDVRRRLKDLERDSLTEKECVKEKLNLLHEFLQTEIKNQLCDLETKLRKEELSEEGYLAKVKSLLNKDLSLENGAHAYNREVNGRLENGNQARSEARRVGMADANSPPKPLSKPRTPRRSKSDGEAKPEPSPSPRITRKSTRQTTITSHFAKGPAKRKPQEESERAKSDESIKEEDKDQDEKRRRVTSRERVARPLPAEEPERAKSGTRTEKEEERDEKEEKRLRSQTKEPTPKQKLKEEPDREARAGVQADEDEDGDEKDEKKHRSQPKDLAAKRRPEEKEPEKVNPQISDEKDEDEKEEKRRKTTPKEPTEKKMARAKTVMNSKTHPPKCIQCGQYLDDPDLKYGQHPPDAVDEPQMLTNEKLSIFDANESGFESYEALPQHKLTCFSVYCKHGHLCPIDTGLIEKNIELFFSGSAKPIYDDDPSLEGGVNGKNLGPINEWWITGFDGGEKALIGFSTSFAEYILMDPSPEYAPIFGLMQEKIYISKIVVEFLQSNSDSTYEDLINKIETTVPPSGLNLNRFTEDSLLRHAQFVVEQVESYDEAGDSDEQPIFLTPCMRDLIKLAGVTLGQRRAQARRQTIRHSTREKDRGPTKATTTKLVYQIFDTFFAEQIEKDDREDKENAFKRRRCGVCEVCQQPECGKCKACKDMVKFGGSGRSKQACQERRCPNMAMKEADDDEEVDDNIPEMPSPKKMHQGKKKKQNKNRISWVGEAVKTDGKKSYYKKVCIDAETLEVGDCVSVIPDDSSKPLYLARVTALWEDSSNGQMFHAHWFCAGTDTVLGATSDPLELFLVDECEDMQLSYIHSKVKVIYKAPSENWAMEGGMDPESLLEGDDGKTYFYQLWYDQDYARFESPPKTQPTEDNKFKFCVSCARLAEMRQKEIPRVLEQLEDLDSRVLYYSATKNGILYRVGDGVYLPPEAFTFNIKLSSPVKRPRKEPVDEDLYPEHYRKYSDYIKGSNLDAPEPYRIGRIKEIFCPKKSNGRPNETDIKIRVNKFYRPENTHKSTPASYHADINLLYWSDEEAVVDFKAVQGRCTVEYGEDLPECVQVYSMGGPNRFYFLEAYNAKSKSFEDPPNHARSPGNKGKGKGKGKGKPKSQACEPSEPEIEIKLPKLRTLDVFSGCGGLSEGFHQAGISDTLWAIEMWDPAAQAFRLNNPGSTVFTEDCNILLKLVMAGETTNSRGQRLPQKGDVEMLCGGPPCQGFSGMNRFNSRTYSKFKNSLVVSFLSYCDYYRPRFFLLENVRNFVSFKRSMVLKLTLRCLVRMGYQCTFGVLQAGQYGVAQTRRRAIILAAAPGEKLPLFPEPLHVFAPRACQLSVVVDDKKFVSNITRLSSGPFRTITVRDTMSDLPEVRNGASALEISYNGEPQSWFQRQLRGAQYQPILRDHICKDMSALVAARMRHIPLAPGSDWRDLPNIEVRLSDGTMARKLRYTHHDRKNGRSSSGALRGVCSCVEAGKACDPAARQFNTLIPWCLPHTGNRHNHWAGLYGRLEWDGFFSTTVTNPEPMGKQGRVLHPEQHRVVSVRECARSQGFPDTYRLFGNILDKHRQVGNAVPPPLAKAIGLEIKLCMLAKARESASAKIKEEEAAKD

Chain of Protein arginine N-methyltransferase 5 (Homo sapiens) (O14744 whole entry): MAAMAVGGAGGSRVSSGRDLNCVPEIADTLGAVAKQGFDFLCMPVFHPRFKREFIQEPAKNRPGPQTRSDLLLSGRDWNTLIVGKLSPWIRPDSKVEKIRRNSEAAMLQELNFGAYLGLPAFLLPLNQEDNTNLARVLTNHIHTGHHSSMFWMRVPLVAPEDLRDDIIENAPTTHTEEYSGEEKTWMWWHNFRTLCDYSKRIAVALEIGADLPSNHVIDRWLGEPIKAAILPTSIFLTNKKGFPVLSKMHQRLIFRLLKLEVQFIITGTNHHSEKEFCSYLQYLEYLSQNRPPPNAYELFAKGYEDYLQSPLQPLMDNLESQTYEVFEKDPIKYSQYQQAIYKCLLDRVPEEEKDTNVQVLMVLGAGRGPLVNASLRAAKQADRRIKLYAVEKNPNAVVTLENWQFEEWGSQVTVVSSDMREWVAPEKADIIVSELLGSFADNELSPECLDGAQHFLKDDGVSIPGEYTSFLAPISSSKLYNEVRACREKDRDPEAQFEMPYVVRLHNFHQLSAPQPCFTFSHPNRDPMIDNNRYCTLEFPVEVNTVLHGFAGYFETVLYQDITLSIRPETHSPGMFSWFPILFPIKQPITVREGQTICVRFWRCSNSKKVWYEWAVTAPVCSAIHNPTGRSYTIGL

Regarding `Nc1nc2cnc(C(=O)N3CCOC[C@@H]3c3ccc(C(F)(F)F)cc3)cc2c2c1COC2`, the inhibition in data set [1] stood at 69%; in data set [8], 72%; in data set [9], 32%. In addition, in [2], the fraction unbound was 0.07. The Activity is under 20% in data set [3], “Non-toxic” in [7] and 32% in [10]. Further, the CL free came to 283 mL/min/kg in data set [4] and 50 mL/min/kg in data set [6]. Also, the microsomal CLint at 0.5 µM in [5] worked out at 37 µL/min/mg.
